Source: US11000033B2, “Ketone or oxime compound, and herbicide” (NISSAN CHEMICAL CORPORATION, priority 2014, dated 2021)

Experiments:
Assay type in all cases: in vivo
[1] = test system: Apera spica-venti; assay: Test Example 5: herbicidal effect by foliage application, plastic box (symbol L); conditions: 320 g/ha, 3 weeks after application
Summary of the method: (§1)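 Sowing in sterilized diluvial soil, 14 days' greenhouse growth at 25° C. to 30° C., then uniform small-sprayer foliar application of aqueous emulsion dilution; plants scored three weeks afterwards.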

[2] = test system: Chenopodium album; assay: Test Example 5: herbicidal effect by foliage application, plastic box (symbol O); conditions: 320 g/ha, 3 weeks after application
Summary of the method: as §1

[3] = test system: Apera spica-venti; assay: Test Example 4: herbicidal effect by soil treatment (symbol L); conditions: for L (Apera spica-venti) herbicidal effect grade: application herbicide amount 320 g/ha
Summary of the method: (§2)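 Seeds were sown in sterilized diluvial soil, covered with about 1.5 cm of soil, and the soil surface was sprayed with a water-diluted emulsion of the compound at a predetermined rate. Plants grew in a greenhouse at 25° C. to 30° C.; effects were scored visually 3 weeks after application.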

[4] = test system: wheat; assay: Test Example 4: effect on crop by soil treatment (symbol e); conditions: for e (wheat) effect on crop grade: application herbicide amount 320 g/ha
Summary of the method: (§3)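 Steps: fill box with sterilized diluvial soil; sow seed spot-like; cover with ~1.5 cm soil; grow in greenhouse (25° C. to 30° C.).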

[5] = test system: corn; assay: Test Example 5: effect on crop by foliage application, plastic box (symbol c); conditions: 320 g/ha, 3 weeks after application
Summary of the method: (§4)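 Crop seed is sown alongside grass and broadleaf weed species in spots in sterilized diluvial soil, then covered to a depth of about 1.5 cm. Plants grow in a greenhouse kept at 25° C. to 30° C.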

[6] = test system: Setaria viridis; assay: Test Example 4: herbicidal effect by soil treatment (symbol G); conditions: for G (Setaria viridis) herbicidal effect grade: application herbicide amount 320 g/ha
Summary of the method: as §2

[7] = test system: soybean; assay: Test Example 4: effect on crop by soil treatment (symbol d); conditions: for d (soybean) effect on crop grade: application herbicide amount 320 g/ha
Summary of the method: as §3

[8] = test system: Avena fatua; assay: Test Example 5: herbicidal effect by foliage application, plastic box (symbol I); conditions: 320 g/ha, 3 weeks after application
Summary of the method: as §1

[9] = test system: Digitaria ciliaris; assay: Test Example 5: herbicidal effect by foliage application, plastic box (symbol F); conditions: 320 g/ha, 3 weeks after application
Summary of the method: as §1

[10] = test system: Stellaria media; assay: Test Example 5: herbicidal effect by foliage application, plastic box (symbol P); conditions: 320 g/ha, 3 weeks after application
Summary of the method: as §1

[11] = test system: rice plant; assay: Test Example 5: effect on crop by foliage application, plastic box (symbol b); conditions: 320 g/ha, 3 weeks after application
Summary of the method: as §4

[12] = test system: Lolium multiflorum Lam.; assay: Test Example 5: herbicidal effect by foliage application, plastic box (symbol K); conditions: 320 g/ha, 3 weeks after application
Summary of the method: as §1

[13] = test system: Stellaria media; assay: Test Example 4: herbicidal effect by soil treatment (symbol P); conditions: for P (Stellaria media) herbicidal effect grade: application herbicide amount 320 g/ha
Summary of the method: as §2

[14] = test system: directly sowed rice plant; assay: Test Example 3: effect on crop by foliage application, Wagner pot (symbol b); conditions: application herbicide amount 320 g/ha
Summary of the method: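 Steps: fill a 1/10000-are Wagner pot with alluvial soil; add water and mix to submerge at 0.1–0.5 cm depth; sow rice plus Echinochloa crus-galli var. crus-galli, Leptochloa chinensis and Cyperus difformis; grow in a 25–30 °C greenhouse.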

[15] = test system: rapeseed; assay: Test Example 4: effect on crop by soil treatment (symbol g); conditions: for g (rapeseed) effect on crop grade: application herbicide amount 320 g/ha
Summary of the method: as §3

[16] = test system: Echinochloa crus-galli var. crus-galli; assay: Test Example 3: herbicidal effect by foliage application, Wagner pot (symbol H); conditions: application herbicide amount 320 g/ha
Summary of the method: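 Alluvial soil was flooded to a depth of 0.1–0.5 cm, seeded with the weeds and rice, and kept in a greenhouse at 25–30 °C. After 14 days of growth, the foliage received a small-sprayer application of emulsion diluted to the intended rate; injury was rated at 3 weeks.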

[17] = test system: Alopecurus myosuroides; assay: Test Example 5: herbicidal effect by foliage application, plastic box (symbol J); conditions: 320 g/ha, 3 weeks after application
Summary of the method: as §1

Row | SMILES | L: Apera spica-venti, herbicidal effect grade [1] | O: Chenopodium album, herbicidal effect grade [2] | L (Apera spica-venti) herbicidal effect grade [3] | e (wheat) effect on crop grade [4] | c: corn, effect on crop grade [5] | G (Setaria viridis) herbicidal effect grade [6] | d (soybean) effect on crop grade [7] | I: Avena fatua, herbicidal effect grade [8] | F: Digitaria ciliaris, herbicidal effect grade [9] | P: Stellaria media, herbicidal effect grade [10] | b: directly sowed rice plant, effect on crop grade [11] | K: Lolium multiflorum Lam., herbicidal effect grade [12] | P (Stellaria media) herbicidal effect grade [13] | effect on crop b (directly sowed rice plant), grade 0-5 [14] | g (rapeseed) effect on crop grade [15] | herbicidal effect on H (Echinochloa crus-galli var. crus-galli), grade 0-5 [16] | J: Alopecurus myosuroides, herbicidal effect grade [17] | also measured
1 | CON=C(C)CC1CC(OC(=O)C(C)(C)Oc2ccc(Cl)cc2)=C(c2c(C)cc(C)cc2C)C1=O (stereo not shown) [1-051] | 5 (Herbicidal ratio of 90% or more (almost completely withered)) | 0 (Herbicidal ratio of 5% or lower (almost no effect)) | 5 (Herbicidal ratio of 90% or more (almost completely withered)) | 2 (Herbicidal ratio of 20% or higher and lower than 40%) | 5 (Herbicidal ratio of 90% or more (almost completely withered)) | 5 (Herbicidal ratio of 90% or more (almost completely withered)) | 3 (Herbicidal ratio of 40% or higher and lower than 70%) | 5 (Herbicidal ratio of 90% or more (almost completely withered)) | 5 (Herbicidal ratio of 90% or more (almost completely withered)) | 3 (Herbicidal ratio of 40% or higher and lower than 70%) | 5 (Herbicidal ratio of 90% or more (almost completely withered)) | 5 (Herbicidal ratio of 90% or more (almost completely withered)) | 0 (Herbicidal ratio of 5% or lower (almost no effect)) | 5 (Herbicidal ratio of 90% or more (almost completely withered)) | 4 (Herbicidal ratio of 70% or higher and lower than 90%) | 5 (Herbicidal ratio of 90% or more (almost completely withered)) | 5 (Herbicidal ratio of 90% or more (almost completely withered)) | –
2 | CON=C(C)CC1CC(OC(=O)COc2cccc(OC)c2)=C(c2c(C)cc(C)cc2C)C1=O (stereo not shown) [1-068] | 5 (Herbicidal ratio of 90% or more (almost completely withered)) | 1 (Herbicidal ratio of 5% or higher and lower than 20%) | 5 (Herbicidal ratio of 90% or more (almost completely withered)) | 4 (Herbicidal ratio of 70% or higher and lower than 90%) | 5 (Herbicidal ratio of 90% or more (almost completely withered)) | 5 (Herbicidal ratio of 90% or more (almost completely withered)) | 0 (Herbicidal ratio of 5% or lower (almost no effect)) | 5 (Herbicidal ratio of 90% or more (almost completely withered)) | 5 (Herbicidal ratio of 90% or more (almost completely withered)) | 3 (Herbicidal ratio of 40% or higher and lower than 70%) | 5 (Herbicidal ratio of 90% or more (almost completely withered)) | 5 (Herbicidal ratio of 90% or more (almost completely withered)) | 0 (Herbicidal ratio of 5% or lower (almost no effect)) | 5 (Herbicidal ratio of 90% or more (almost completely withered)) | 4 (Herbicidal ratio of 70% or higher and lower than 90%) | 5 (Herbicidal ratio of 90% or more (almost completely withered)) | 5 (Herbicidal ratio of 90% or more (almost completely withered)) | –
3 | CCCC=CC(=O)OC1=C(c2c(C)cc(C)cc2C)C(=O)C(CC(C)=NOC)C1 (stereo not shown) [1-090] | – | – | – | – | – | – | – | – | – | – | – | – | – | 5 (Herbicidal ratio of 90% or more (almost completely withered)) | – | 5 (Herbicidal ratio of 90% or more (almost completely withered)) | – | L: Apera spica-venti, herbicidal effect (criteria 0-5) [1]: 5 (Herbicidal ratio of 90% or more (almost completely withered)); O: Chenopodium album, herbicidal effect (criteria 0-5) [2]: 2 (Herbicidal ratio of 20% or higher and lower than 40%); L: Apera spica-venti, herbicidal effect grade ([3]; 320 g/ha): 5 (Herbicidal ratio of 90% or more (almost completely withered)); e: wheat, effect grade on crop ([4]; 320 g/ha): 4 (Herbicidal ratio of 70% or higher and lower than 90%); c: corn, effect on crop (criteria 0-5) [5]: 5 (Herbicidal ratio of 90% or more (almost completely withered)); G: Setaria viridis, herbicidal effect grade ([6]; 320 g/ha): 5 (Herbicidal ratio of 90% or more (almost completely withered)); d: soybean, effect grade on crop ([7]; 320 g/ha): 0 (Herbicidal ratio of 5% or lower (almost no effect)); I: Avena fatua, herbicidal effect (criteria 0-5) [8]: 5 (Herbicidal ratio of 90% or more (almost completely withered)); F: Digitaria ciliaris, herbicidal effect (criteria 0-5) [9]: 5 (Herbicidal ratio of 90% or more (almost completely withered)); P: Stellaria media, herbicidal effect (criteria 0-5) [10]: 3 (Herbicidal ratio of 40% or higher and lower than 70%); b: directly sowed rice plant, effect on crop (criteria 0-5) [11]: 5 (Herbicidal ratio of 90% or more (almost completely withered)); K: Lolium multiflorum Lam., herbicidal effect (criteria 0-5) [12]: 5 (Herbicidal ratio of 90% or more (almost completely withered)); P: Stellaria media, herbicidal effect grade ([13]; 320 g/ha): 0 (Herbicidal ratio of 5% or lower (almost no effect)); g: rapeseed, effect grade on crop ([15]; 320 g/ha): 4 (Herbicidal ratio of 70% or higher and lower than 90%); J: Alopecurus myosuroides, herbicidal effect (criteria 0-5) [17]: 5 (Herbicidal ratio of 90% or more (almost completely withered))
4 | CC(CC1CC(O)=C(c2c(C)cc(C)cc2C)C1=O)=NO (stereo not shown) [1-058] | 5 (Herbicidal ratio of 90% or more (almost completely withered)) | 0 (Herbicidal ratio of 5% or lower (almost no effect)) | 4 (Herbicidal ratio of 70% or higher and lower than 90%) | 0 (Herbicidal ratio of 5% or lower (almost no effect)) | 4 (Herbicidal ratio of 70% or higher and lower than 90%) | 5 (Herbicidal ratio of 90% or more (almost completely withered)) | 0 (Herbicidal ratio of 5% or lower (almost no effect)) | 5 (Herbicidal ratio of 90% or more (almost completely withered)) | 5 (Herbicidal ratio of 90% or more (almost completely withered)) | 0 (Herbicidal ratio of 5% or lower (almost no effect)) | 5 (Herbicidal ratio of 90% or more (almost completely withered)) | 5 (Herbicidal ratio of 90% or more (almost completely withered)) | 0 (Herbicidal ratio of 5% or lower (almost no effect)) | 5 (Herbicidal ratio of 90% or more (almost completely withered)) | 3 (Herbicidal ratio of 40% or higher and lower than 70%) | 5 (Herbicidal ratio of 90% or more (almost completely withered)) | 5 (Herbicidal ratio of 90% or more (almost completely withered)) | –
5 | CON=C(CC1CC(O)=C(c2c(C)cc(C)cc2C)C1=O)c1ccccn1 (stereo not shown) [1-045] | 5 (Herbicidal ratio of 90% or more (almost completely withered)) | 0 (Herbicidal ratio of 5% or lower (almost no effect)) | 0 (Herbicidal ratio of 5% or lower (almost no effect)) | 0 (Herbicidal ratio of 5% or lower (almost no effect)) | 3 (Herbicidal ratio of 40% or higher and lower than 70%) | 0 (Herbicidal ratio of 5% or lower (almost no effect)) | 0 (Herbicidal ratio of 5% or lower (almost no effect)) | 5 (Herbicidal ratio of 90% or more (almost completely withered)) | 4 (Herbicidal ratio of 70% or higher and lower than 90%) | 0 (Herbicidal ratio of 5% or lower (almost no effect)) | 5 (Herbicidal ratio of 90% or more (almost completely withered)) | 5 (Herbicidal ratio of 90% or more (almost completely withered)) | 0 (Herbicidal ratio of 5% or lower (almost no effect)) | 3 (Herbicidal ratio of 40% or higher and lower than 70%) | 0 (Herbicidal ratio of 5% or lower (almost no effect)) | 5 (Herbicidal ratio of 90% or more (almost completely withered)) | 5 (Herbicidal ratio of 90% or more (almost completely withered)) | –
